Measurements as given in patent US20260285868A1, “IMIDAZOTRIAZINE DERIVATIVES AS IL-17 MODULATORS” (UCB BIOPHARMA SRL, priority 2023, published 2026).

biological target: T1, IL-17A (Homo sapiens, UniProt Q16552); test: Inhibition of IL-17A induced IL-6 release from dermal fibroblast cell line (HDF cell line assay); format: cell-based; settings: HDF cells stimulated with IL-17A 50 pM + TNFα 25 pM; IL-6 measured by HTRF
T1 sequence (Q16552 24-155): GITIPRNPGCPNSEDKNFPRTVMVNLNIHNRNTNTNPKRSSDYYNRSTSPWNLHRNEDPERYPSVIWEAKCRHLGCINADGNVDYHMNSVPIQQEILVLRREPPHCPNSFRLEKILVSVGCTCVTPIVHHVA
Description: Inhibition of IL-17A Induced IL-6 Release from Dermal Fibroblast Cell Line
The purpose of this assay is to test the neutralising ability to IL-17 proteins, in a human primary cell system. Stimulation of normal human dermal fibroblasts (HDF) with IL-17 alone produces only a very weak signal but in combination with certain other cytokines, such as TNFα, a synergistic effect can be seen in the production of inflammatory cytokines, i.e. IL-6.
HDFs were stimulated with IL-17A (50 pM) in combination with TNF-α (25 pM). The resultant IL-6 response was then measured using a homogenous time-resolved FRET kit from Cisbio. The kit utilises two monoclonal antibodies, one labelled with Eu-Cryptate (Donor) and the second with d2 or XL665 (Acceptor). The intensity of the signal is proportional to the concentration of IL-6 present in the sample (Ratio is calculated by 665/620×104).
The ability of a compound to inhibit IL-17 induced IL-6 release from human dermal fibroblasts is measured in this assay.
HDF cells (Sigma #106-05n) were cultured in complete media (DMEM+10% FCS+2 mM L-glutamine) and maintained in a tissue culture flask using standard techniques. Cells were harvested from the tissue culture flask on the morning of the assay using TrypLE (Invitrogen #12605036). The TrypLE was neutralised using complete medium (45 mL) and the cells were centrifuged at 300×g for 3 minutes. The cells were re-suspended in complete media (5 mL) counted and adjusted to a concentration of 3.125×10^4 cells/mL before being added to the 384 well assay plate (Corning #3701) at 40 μL per well. The cells were left for a minimum of three hours, at 37° C./5% CO2, to adhere to the plate.
Compounds were serially diluted in DMSO before receiving an aqueous dilution into a 384 well dilution plate (Greiner #781281), where 5 μL from the titration plate was transferred to 45 μL of complete media and mixed to give a solution containing 10% DMSO.
Mixtures of TNFα and IL-17 cytokine were prepared in complete media to final concentrations of TNFα 25 pM/IL-17A 50 pM, then 30 μL of the solution was added to a 384 well reagent plate (Greiner #781281).
10 μL from the aqueous dilution plate was transferred to the reagent plate containing 30 μL of the diluted cytokines, to give a 2.5% DMSO solution. The compounds were incubated with the cytokine mixtures for 5 h at 37° C. […]
From the Cisbio IL-6 FRET kit (Cisbio #62IL6PEB) europium cryptate and Alexa 665 were diluted in reconstitution buffer and mixed 1:1, as per kit insert. […] The mixture was incubated at room temperature for 3 h with gentle shaking (<400 rpm) before being read on a Synergy Neo 2 plate reader (Excitation: 330 nm; Emission: 615/645 nm).

Row | IC50 [nM] | Structure (SMILES)
1 | 39.8 | CO[C@H]1CCN(C(=O)[C@@H]2CCC(F)(F)CO2)[C@@H](c2cnn3cc([C@@H](NC(=O)c4ccnn4C)C4CCC(F)(F)CC4)nc3n2)C1 (single isomer, unassigned) [Example 3, N—[(S)-(4,4-Difluorocyclohexyl)(3-{(2R,4S or 2S,4R)-1-[(2S)-5,5-difluorotetrahydro-pyran-2-carbonyl]-4-methoxypiperidin-2-yl}imidazo[1,2-b][1,2,4]triazin-6-yl)methyl]-2-methylpyrazole-3-carboxamide]
2 | 39.8 | [2H]C([2H])([2H])O[C@H]1CCN(C(=O)[C@@H]2CCC(F)(F)CO2)[C@@H](c2cnn3cc([C@@H](NC(=O)c4ccnn4C)C4CCC(F)(F)CC4)nc3n2)C1 (single isomer, unassigned) [Example 1, N—[(S)-(4,4-Difluorocyclohexyl)(3-{(2R,4S or 2S,4R)-1-[(2S)-5,5-difluorotetrahydro-pyran-2-carbonyl]-4-(trideuteriomethoxy)piperidin-2-yl}imidazo[1,2-bl[1,2,4]triazin-6-yl)methyl]-2-methylpyrazole-3-carboxamide]
3 | 3.16 | CO[C@H]1CCN(C(=O)[C@@H]2CCC(F)(F)CO2)[C@H](c2cnn3cc(C(NC(=O)c4ccnn4C)C4CCC(F)(F)CC4)nc3n2)C1 (single isomer, unassigned) [Example 4, N—[(S)-(4,4-Difluorocyclohexyl)(3-{(2S,4S or 2R,4R)-1-[(2S)-5,5-difluorotetrahydro-pyran-2-carbonyl]-4-methoxypiperidin-2-yl}imidazo[1,2-bl[1,2,4]triazin-6-yl)methyl]-2-methylpyrazole-3-carboxamide]
4 | 3.98 | [2H]C([2H])([2H])O[C@H]1CCN(C(=O)[C@@H]2CCC(F)(F)CO2)[C@H](c2cnn3cc(C(NC(=O)c4ccnn4C)C4CCC(F)(F)CC4)nc3n2)C1 (single isomer, unassigned) [Example 2, N—[(S)-(4,4-Difluorocyclohexyl)(3-{(2S,4S or 2R,4R)-1-[(2S)-5,5-difluorotetrahydro-pyran-2-carbonyl]-4-(trideuteriomethoxy)piperidin-2-yl}imidazo[1,2-bl[1,2,4]triazin-6-yl)methyl]-2-methylpyrazole-3-carboxamide]
